Common to all, as to type: cell-based
Assay [1] relates to N87 (gastric cancer) cells, Her2-target expressing. In words: In vitro cell assay, cell viability by MTS, N87. The conditions noted are these: 96 h, read-out: Average IC50, N87. The method, then:
(§1) Her2-Target expressing (BT474 (breast cancer), N87 (gastric cancer), MDA-MB-361-DYT2 (breast cancer)) or Her2-non-expressing (MDA-MB-468, HT29) cells, or 0033-target expressing HL60, HEL92.1.7, NB4, TF-1 or 0033-non-expressing (Raji) cells were seeded in 96-well cell culture plates for 24 hours before treatment. Cells were treated with 3-fold serially diluted antibody-drug conjugates or free compounds (i.e., no antibody conjugated to the drug) in duplicate at 10 concentrations. Cell viability was determined by CellTiter 96® AQueous One Solution Cell Proliferation MTS Assay (Promega, Madison WI) 96 hours after treatment. Relative cell viability was determined as percentage of untreated control. IC50 values were calculated using a four parameter logistic model #203 with XLfit v4.2 (IDBS, Guildford, Surry, UK). Results are shown below in Table 3 (for payloads), Table 4 (for Herceptin conjugates), and Table 5 (for CD33 conjugates).

The subject of assay [2] is MDA-MB-361-DYT2 (breast cancer) cells, Her2-target expressing. Put plainly: In vitro cell assay, cell viability by MTS, MDA-MB-361-DYT2. The conditions noted are these: 96 h, read-out: Average IC50, MDA-MB-361-DYT2. The method, then:
as §1

Assay [3] has as its system HT29 cells, Her2-non-expressing. Put plainly: In vitro cell assay, cell viability by MTS, HT29. The conditions noted are these: Homo sapiens, HT-29, 96 h, read-out: Average IC50, HT29. The method, then:
as §1

The test system of assay [4] is HL60 cells, CD33-target expressing. In words: In vitro cell assay, cell viability by MTS, HL60. As to conditions: Homo sapiens, HL-60, 96 h, read-out: Average IC50, HL-60. The method, then: as §1
Assay [5] has as its system HEL92.1.7 cells, CD33-target expressing. In words: In vitro cell assay, cell viability by MTS, HEL92.1.7. The conditions noted are these: Homo sapiens, HEL 92.1.7, 96 h, read-out: Average IC50, HEL92.1.7. The method, then: as §1
Assay [6] has as its system NB4 cells, CD33-target expressing. In words: In vitro cell assay, cell viability by MTS, NB4. The conditions noted are these: Homo sapiens, NB-4, 96 h, read-out: Average IC50, NB4. The method, then:
as §1

The subject of assay [7] is TF-1 cells, CD33-target expressing. Put plainly: In vitro cell assay, cell viability by MTS, TF-1. As to conditions: Homo sapiens, TF-1, 96 h, read-out: Average IC50, TF-1. The method, then:
as §1

The test system of assay [8] is Raji cells, CD33-non-expressing. Put plainly: In vitro cell assay, cell viability by MTS, Raji. As to conditions: Homo sapiens, 96 h, read-out: Average IC50, Raji. The method, then:
as §1

As for `CCN[C@H]1CO[C@@H](O[C@H]2[C@H](O[C@H]3C#C/C=C\C#C[C@]4(O)CC(=O)C(NC(=O)OC)=C3/C4=C\CSSC3CCNCC3)O[C@H](C)[C@@H](NO[C@H]3C[C@H](O)[C@H](SC(=O)c4c(C)c(I)c(O[C@@H]5O[C@@H](C)[C@H](O)[C@@H](OC)[C@H]5O)c(OC)c4OC)[C@@H](C)O3)[C@@H]2O)C[C@@H]1OC` [Example P16], the IC50 came out at 23 pM in assay [1]; 45 pM in assay [2]; 35 pM in assay [3]; 24 pM in assay [4]; 71 pM in assay [5]; 15 pM in assay [6]. The IC50 in assay [7] was 150 pM; in assay [8], 77 pM.

With `CCN[C@H]1CO[C@@H](O[C@H]2[C@H](O[C@H]3C#C/C=C\C#C[C@]4(O)CC(=O)C(NC(=O)OC)=C3/C4=C\CSSC(C)C)O[C@H](C)[C@@H](NO[C@H]3C[C@H](O)[C@H](SC(=O)c4c(C)c(I)c(O[C@@H]5O[C@@H](C)[C@H](O)[C@@H](OC)[C@H]5O)c(OC)c4OC)[C@@H](C)O3)[C@@H]2O)C[C@@H]1OC` [Example P1], the 50% inhibitory concentration (IC50) was 7 pM in assay [1]; 21 pM in assay [2]; 3 pM in assay [3]; 3 pM in assay [4]; 28 pM in assay [5]; 3 pM in assay [6]. Besides, the IC50 in assay [7] was determined as 71 pM; in assay [8], 6 pM.

Consider `CCN[C@H]1CO[C@@H](O[C@H]2[C@H](O[C@H]3C#C/C=C\C#C[C@]4(O)CC(=O)C(NC(=O)OC)=C3/C4=C\CSSc3ccccc3C(=O)O)O[C@H](C)[C@@H](NO[C@H]3C[C@H](O)[C@H](SC(=O)c4c(C)c(I)c(O[C@@H]5O[C@@H](C)[C@H](O)[C@@H](OC)[C@H]5O)c(OC)c4OC)[C@@H](C)O3)[C@@H]2O)C[C@@H]1OC` [Example P3], for which the IC50 in assay [1] is 309 pM; in assay [2], 1750 pM; in assay [3] it was 690 pM; in assay [4], 149 pM; in assay [5], 371 pM; in assay [6], 81 pM. Besides, the 50% inhibitory concentration (IC50) in assay [7] was determined as 1640 pM; in assay [8] it was 378 pM.

As to `CCN(CC(=O)O)[C@H]1CO[C@@H](O[C@H]2[C@H](O[C@H]3C#C/C=C\C#C[C@]4(O)CC(=O)C(NC(=O)OC)=C3/C4=C\CSSC(C)C)O[C@H](C)[C@@H](NO[C@H]3C[C@H](O)[C@H](SC(=O)c4c(C)c(I)c(O[C@@H]5O[C@@H](C)[C@H](O)[C@@H](OC)[C@H]5O)c(OC)c4OC)[C@@H](C)O3)[C@@H]2O)C[C@@H]1OC` [Example P50], the half-inhibitory concentration (IC50) came to 1050 pM in assay [1]; 7330 pM in assay [2]; 775 pM in assay [3]; 372 pM in assay [4]; 3930 pM in assay [5]; 127 pM in assay [6]. The IC50 is 17900 pM in assay [7] and 438 pM in assay [8].

With `CCN[C@H]1CO[C@@H](O[C@@H]2C(O)[C@H](NO[C@H]3C[C@H](O)[C@H](SC(=O)c4c(C)c(I)c(O[C@@H]5O[C@@H](C)[C@H](O)[C@@H](OC)[C@H]5O)c(OC)c4OC)[C@@H](C)O3)[C@@H](C)O[C@H]2O[C@H]2C#C/C=C\C#C[C@]3(O)CC(=O)C(NC(=O)OC)=C2/C3=C\CSS[C@H](C)CO)C[C@@H]1OC` (stereo in doubt) [Example P47], the IC50 in assay [1] came out at 1870 pM; in assay [2], 6540 pM; in assay [3] it was 1400 pM; in assay [4], 54 pM; in assay [5], 141 pM; in assay [6], 40 pM. Further, the figures for the IC50 in assay [7] and in assay [8] were 737 pM and 50 pM, respectively.

As to `CCN[C@H]1CO[C@@H](O[C@H]2[C@H](O[C@H]3C#C/C=C\C#C[C@]4(O)CC(=O)C(NC(=O)OC)=C3/C4=C\CSSC(C)C(=O)OCC)O[C@H](C)[C@@H](NO[C@H]3C[C@H](O)[C@H](SC(=O)c4c(C)c(I)c(O[C@@H]5O[C@@H](C)[C@H](O)[C@@H](OC)[C@H]5O)c(OC)c4OC)[C@@H](C)O3)[C@@H]2O)C[C@@H]1OC` (stereo partly shown) [Example P11], the IC50 turned out to be 7 pM in assay [1]; 8 pM in assay [2]; 6 pM in assay [3]; 2 pM in assay [4]; 3 pM in assay [5]; 1 pM in assay [6]. Moreover, the figures for the IC50 in assay [7] and in assay [8] were 30 pM and 2 pM, respectively.

With `CCN[C@H]1CO[C@@H](O[C@H]2[C@H](O[C@H]3C#C/C=C\C#C[C@]4(O)CC(=O)C(NC(=O)OC)=C3/C4=C\CSSC(C)(C)CCNC(=O)[C@H](CCCNC(N)=O)NC(=O)[C@@H](NC(C)=O)C(C)C)O[C@H](C)[C@@H](NO[C@H]3C[C@H](O)[C@H](SC(=O)c4c(C)c(I)c(O[C@@H]5O[C@@H](C)[C@H](O)[C@@H](OC)[C@H]5O)c(OC)c4OC)[C@@H](C)O3)[C@@H]2O)C[C@@H]1OC` [Example P35], the IC50 in assay [1] was 14700 pM; in assay [2] it was 2340 pM; in assay [3], 3670 pM; in assay [4], 2250 pM; in assay [7], 7500 pM; in assay [8], 2100 pM.

On to `CCN[C@H]1CO[C@@H](O[C@H]2[C@H](O[C@H]3C#C/C=C\C#C[C@]4(O)CC(=O)C(NC(=O)OC)=C3/C4=C\CSSC(C)(C)CNCCOc3ccccc3)O[C@H](C)[C@@H](NO[C@H]3C[C@H](O)[C@H](SC(=O)c4c(C)c(I)c(O[C@@H]5O[C@@H](C)[C@H](O)[C@@H](OC)[C@H]5O)c(OC)c4OC)[C@@H](C)O3)[C@@H]2O)C[C@@H]1OC` [Example P36], for which the IC50 in assay [1] worked out at 6200 pM; in assay [2], 3850 pM; in assay [3] it was 1280 pM; in assay [4], 881 pM; in assay [7], 6860 pM; in assay [8], 1130 pM.

As for `CCN[C@H]1CO[C@@H](O[C@H]2[C@H](O[C@H]3C#C/C=C\C#C[C@]4(O)CC(=O)C(NC(=O)OC)=C3/C4=C\CSSC(C)(C)[C@H](N)C(=O)O)O[C@H](C)[C@@H](NO[C@H]3C[C@H](O)[C@H](SC(=O)c4c(C)c(I)c(O[C@@H]5O[C@@H](C)[C@H](O)[C@@H](OC)[C@H]5O)c(OC)c4OC)[C@@H](C)O3)[C@@H]2O)C[C@@H]1OC` [Example P33], the IC50 worked out at 1660 pM in assay [1]; 1500 pM in assay [2]; 386 pM in assay [3]; 205 pM in assay [4]; 1090 pM in assay [7]; 261 pM in assay [8].

With `CCN[C@H]1CO[C@@H](O[C@H]2[C@H](O[C@H]3C#C/C=C\C#C[C@]4(O)CC(=O)C(NC(=O)OC)=C3/C4=C\CSSC(CC(=O)O)C(=O)O)O[C@H](C)[C@@H](NO[C@H]3C[C@H](O)[C@H](SC(=O)c4c(C)c(I)c(O[C@@H]5O[C@@H](C)[C@H](O)[C@@H](OC)[C@H]5O)c(OC)c4OC)[C@@H](C)O3)[C@@H]2O)C[C@@H]1OC` (stereo partly shown) [Example P6], the half-inhibitory concentration (IC50) in assay [1] stood at 1240 pM; in assay [2], 1350 pM; in assay [3] it was 1140 pM; in assay [4], 568 pM; in assay [6] it was 492 pM; in assay [7], 5930 pM. Also, the IC50 in assay [8] was 1210 pM.

For `CCN[C@H]1CO[C@@H](O[C@H]2[C@H](O[C@H]3C#C/C=C\C#C[C@]4(O)CC(=O)C(NC(=O)OC)=C3/C4=C\CSSC(C)(C)CC(N)=O)O[C@H](C)[C@@H](NO[C@H]3C[C@H](O)[C@H](SC(=O)c4c(C)c(I)c(O[C@@H]5O[C@@H](C)[C@H](O)[C@@H](OC)[C@H]5O)c(OC)c4OC)[C@@H](C)O3)[C@@H]2O)C[C@@H]1OC` [Example P30], the IC50 was 308 pM in assay [1]; 49 pM in assay [2]; 57 pM in assay [3]; 49 pM in assay [4]; 112 pM in assay [7]; 30 pM in assay [8].

As to `CCN[C@H]1CO[C@@H](O[C@H]2[C@H](O[C@H]3C#C/C=C\C#C[C@]4(O)CC(=O)C(NC(=O)OC)=C3/C4=C\CSSC(C)(C)CC(=O)N(C)C)O[C@H](C)[C@@H](NO[C@H]3C[C@H](O)[C@H](SC(=O)c4c(C)c(I)c(O[C@@H]5O[C@@H](C)[C@H](O)[C@@H](OC)[C@H]5O)c(OC)c4OC)[C@@H](C)O3)[C@@H]2O)C[C@@H]1OC` [Example P31], the half-inhibitory concentration (IC50) in assay [1] was determined as 51 pM; in assay [2] it was 32 pM; in assay [3], 10 pM; in assay [4], 11 pM; in assay [7], 84 pM; in assay [8] it was 8 pM.

For the compound `CCN[C@H]1CO[C@@H](O[C@H]2[C@H](O[C@H]3C#C/C=C\C#C[C@]4(O)CC(=O)C(NC(=O)OC)=C3/C4=C\CSSC(C)(C)c3ccc(N)cc3)O[C@H](C)[C@@H](NO[C@H]3C[C@H](O)[C@H](SC(=O)c4c(C)c(I)c(O[C@@H]5O[C@@H](C)[C@H](O)[C@@H](OC)[C@H]5O)c(OC)c4OC)[C@@H](C)O3)[C@@H]2O)C[C@@H]1OC` [Example P27], the IC50 is 40 pM in assay [1]; 3 pM in assay [2]; 6 pM in assay [3]; 4 pM in assay [4]; 20 pM in assay [7]; 2 pM in assay [8].

The record behind these values is patent US20240409573A1, “CALICHEAMICIN DERIVATIVES AND ANTIBODY DRUG CONJUGATES THEREOF” (priority 2017, published 2024).
